Experimental data: US20180147177A1, “Antibacterial Compositions Comprising Copper Oxo-Hydroxide Nanoparticles and Their Uses as Biocidal Agents” (Medical Research Council, priority 2015, published 2018)

Legend:
[1] = tested on: Escherichia coli NCTC11100; assay: Bacterial growth inhibition assay (turbidimetric, OD 595 nm, HMM medium); assay type: cell-based; settings: E. coli, no copper
Experimental: Antimicrobial activity was assessed through determination of bacterial growth inhibition in the presence of copper compounds. A turbidimetric assay was used to follow bacterial concentration over time as this is proportional to optical density (OD at 595 nm) in liquid medium, allowing an easy screening of bacterial growth over time. Escherichia coli NCTC11100 and Staphylococcus aureus RN4220 were the tested microorganisms in this assay. Stock bacterial colonies were kept in cultivated in agar plates and on the day before the experiment, one colony was transferred into 10 ml of HMM liquid medium and grown overnight at 30° C. under constant shaking (80 rpm) in an incubator. […] Copper stock solutions (refer to section 2.1) were sequentially diluted in HMM to achieve typical concentrations between 0.8 and 100 ppm Cu in a volume of 0.1 ml. Next, 0.1 ml of bacterial culture was added and incubated with copper at 30° C. under constant agitation (80 rpm). Final copper concentrations in the assay ranged between 0.4 and 50 ppm, and OD was measured every hour for a typical period of 7-8 hours to follow bacterial growth. OD background, i.e. OD absorbance not caused by bacteria, was determined to remove readout interference from copper and broth. Growth inhibition was calculated as follows: […]

[2] = tested on: Human dermal fibroblast cells (cell line CCD-25SK); assay: Cell proliferation of skin fibroblasts (IncuCyte confluence AUC); assay type: cell-based; settings: CCD-25Sk skin fibroblasts, 48 hours
Experimental: CuCl2 and AgNO3 were also tested in parallel as positive controls. Percentage of cell confluence was determined experimentally using an IncuCyte Zoom and plotted overtime to determine the area under the curve (AUC) for each concentration tested. Cell proliferation was used as an indication for cell toxicity and was determined by normalising the AUC of cells exposed to the testing compounds against those of cells growing at normal rates (control).

V. fischeri = assay: Minimum bactericidal concentration (liquid incubation, then agar plates); assay type: cell-based; settings: n = 1
E. coli MC1061 = assay: as above; assay type: cell-based; settings: n = 1
[3] = Copper release from a gel matrix (HEC gel release assay); assay type: physicochemical; settings: HEC gel with 250 ppm Cu, bicarbonate solution pH 7, over 24 hours
Experimental: This assay consisted of exposing the copper-containing HEC—with specific surface area (7.1 cm^2)—to a bicarbonate buffered solution at pH 7.0±0.2, following copper concentration over time.
10 g of the gel was poured into a 50 ml falcon tube and let settle down overnight. 10 ml of a 50 mM NaHCO3 solution at pH 7±0.2 were carefully transferred on the surface of the gel. Samples were collected over 24 hours and copper concentration in the overhead solution was determined by ICP-OES (see section 2.4.1.).

[4] = Copper dispersibility in MOPS buffer pH 7.4; assay type: physicochemical; settings: MOPS buffer pH 7.4±0.2, copper added up to 500 ppm
Experimental: Stock copper materials were diluted in 50 mM 3-(N-morpholino)propanesulfonic acid (MOPS) buffer at pH 7.4±0.2. Final copper concentrations varied between 10 and 500 ppm. Microparticulate copper was removed by centrifugation at 16000 g for 5 minutes. Total copper and supernatant (i.e. disperse fraction) were analysed by Inductively Coupled Plasma-Optical Emission Spectroscopy (ICP-OES) as described in section 2.4.1.

B. subtilis BR151 = assay: Minimum bactericidal concentration (liquid incubation, then agar plates); assay type: cell-based; settings: n = 1
P. aeruginosa = assay: as above; assay type: cell-based; settings: n = 1
S. aureus RN4220 = assay: as above; assay type: cell-based; settings: n = 1

## O.O.O=C([O-])CN(CCN(CC(=O)[O-])CC(=O)O)CC(=O)O.[Na+].[Na+] [EDTA, disodium ethylenediaminetetraacetate (EDTA) di-hydrate]
[1]
  antibacterial effect of the complexing agent alone (in words): had antibacterial effect

## O=[N+]([O-])[O-].[Ag+] [AgNO3]
[2]
  concentration from which cell proliferation decreased: ≥ 10000 ng/mL

## O.O.[Cl][Cu][Cl] [CuCl2, CuCl2.2H2O]
V. fischeri; 4 h incubation
  MBC: 100 ppm Cu
V. fischeri; 24 h incubation
  MBC: 100 ppm Cu
V. fischeri; 48 h incubation
  MBC: >100 ppm Cu
V. fischeri; 72 h incubation
  MBC: >100 ppm Cu
V. fischeri; 96 h incubation
  MBC: >100 ppm Cu
E. coli MC1061; 4 h incubation
  MBC: 100 ppm Cu
E. coli MC1061; 24 h incubation
  MBC: 50 ppm Cu
E. coli MC1061; 48 h incubation
  MBC: 10 ppm Cu
E. coli MC1061; 72 h incubation
  MBC: 50 ppm Cu
E. coli MC1061; 96 h incubation
  MBC: 50 ppm Cu
[3]
  Cu released from HEC matrix: ≤ 10 ppm
[4]
  dispersible fraction (maximum): ca. 10 ppm of Cu
B. subtilis BR151; 4 h incubation
  MBC: >100 ppm Cu
B. subtilis BR151; 24 h incubation
  MBC: >100 ppm Cu
B. subtilis BR151; 48 h incubation
  MBC: >100 ppm Cu
B. subtilis BR151; 72 h incubation
  MBC: >100 ppm Cu
B. subtilis BR151; 96 h incubation
  MBC: >100 ppm Cu
[2]
  concentration from which cell proliferation decreased: ≥ 50000 ng/mL
P. aeruginosa; 4 h incubation
  MBC: 100 ppm Cu
P. aeruginosa; 24 h incubation
  MBC: 100 ppm Cu
P. aeruginosa; 48 h incubation
  MBC: 100 ppm Cu
P. aeruginosa; 72 h incubation
  MBC: 100 ppm Cu
P. aeruginosa; 96 h incubation
  MBC: 100 ppm Cu
S. aureus RN4220; 4 h incubation
  MBC: 100 ppm Cu
S. aureus RN4220; 24 h incubation
  MBC: 50 ppm Cu
S. aureus RN4220; 48 h incubation
  MBC: 50 ppm Cu
S. aureus RN4220; 72 h incubation
  MBC: 50 ppm Cu
S. aureus RN4220; 96 h incubation
  MBC: 50 ppm Cu
